Experiment [1] deals with breast cancer patients with tumors expressing HER2 (HER2 3+). Description: Phase IIb trial (NCT00524277): disease free survival / recurrence. The class given is in vivo, human. The settings on record: HER2 3+ patients who completed the primary immunization series after trastuzumab; 5 years of follow-up.
Experiment [2] has as its system breast cancer patients with tumors expressing any degree of HER2. Description: Phase IIb trial: injection site reactions (ISRs), orthogonal mean of largest perpendicular diameters. The class given is in vivo, human. The protocol: Background: Delayed type hypersensitivity (DTH) skin tests in the randomized, active-controlled, single-blinded, multicenter Phase IIb trial investigating GLSI-100 (GP2+GM-CSF) administered in the adjuvant setting to node-positive and high-risk node-negative breast cancer patients with tumors expressing any degree of HER2 (immuno-histochemistry [IHC] 1-3+) (NCT00524277) were analyzed. The trial enrolled HLA-A*02 patients randomized to receive GLSI-100 versus GM-CSF alone. The trial's primary objective was to determine if treatment with GLSI-100, a HER2-derived peptide, reduces recurrence rates.
Methods: Patients were randomized and received GLSI-100 (500 micrograms (mcg) GP2 and 125 mcg GM-CSF) or control (GM-CSF) via 6 intradermal injections every 3-4 weeks for the first 6 months and 4 booster injections every 6 months. The magnitude of injection site reactions, which occurred in almost all patients, were assessed for the 10 doses administered by measuring the largest perpendicular diameters and the resulting orthogonal mean.

Take “GM-CSF: granulocyte macrophage colony-stimulating factor, adjuvant; control arm (called placebo) of the active-controlled trial”: the “Kaplan-Meier estimated 5-year disease free survival (DFS) rate” value in experiment [1] is listed as 89.4%. In experiment [2] (after a single dose), the “median orthogonal mean induration” value is listed as 7.8 mm. In experiment [2] (all treated patients), the “patients with injection site reactions” value is on record as about 100%. Further, the “difference in reactions, HER2 3+ control patients (Herceptin treated) smaller than HER2 1-2+ control patients” value in experiment [2] (average over all 10 doses) was determined as 43.1 mm.

As to “Ile Ile Ser Ala Val Val Gly Ile Leu (IISAVVGIL) [GP2, 9 amino acid transmembrane peptide of the HER2/neu protein]”, the “increase of injection site reactions by adding GP2 treatment” value in experiment [2] (trastuzumab treated HER2 3+ patients vs GM-CSF control, average over all 10 doses) is 39.2 mm.

Values taken from patent publication US20250235520A1, “METHODS FOR REVERSING A SUPPRESSED IMMUNE STATE TO INCREASE SURVIVAL IN A SUBJECT” (priority 2022, published 2025).
